Experimental data published in patent US20070059254A1, “Compositions for delivering 5-ht agonists across the oral mucosa and methods of use thereof” (TRANSORAL PHARMACEUTICALS, INC., priority 2003, published 2007).

Columns and labels:
[1] = Dissociation constant (pKa) and extent of ionization; type: physicochemical
Excerpt: Conversion of the ionized form to the un-ionized form for the 5-HT agonist is related to pH according to the formula: pH=pKa+Log10 (un-ionized concentration/ionized concentration). When the pH is the same as the pKa, equimolar concentrations of the un-ionized form and ionized form exist. […] As noted above, the un-ionized form is lipophilic and, therefore, more capable of passing through mucous membranes such as the oral mucosa than the ionized form, which is lipophobic in nature. Accordingly, increasing the pH of the saliva favors conversion of the ionized form into the un-ionized form for basic compounds such as the 5-HT agonists described herein, and the final pH can be determined by making use of the above formula. […] The final pH values of these solutions were adjusted using freshly prepared 0.01 M sodium bicarbonate/sodium carbonate buffer. Permeation was measured by determining the concentration of sumatriptan in the acceptor cell, and is expressed as Pe (effective permeability in centimeters per second).

[2] = Sumatriptan membrane assay (dodecane membrane between donor and acceptor cell); type: in vitro ADME; conditions: pH 9.0 to 10.0
Excerpt: Topics Med. Chem., 1:277-351 (2001). This assay uses a lipid-coated membrane to predict lipid mucosal membrane penetration. The membrane apparatus consists of a dodecane membrane sandwiched between a donor and acceptor cell. The lipid-coated membrane is less porous then the mucous membrane of the oral cavity. Thus, the enhancement seen in the membrane assay is very likely to be magnified in vivo. […] The final pH values of these solutions were adjusted using freshly prepared 0.01 M sodium bicarbonate/sodium carbonate buffer. Permeation was measured by determining the concentration of sumatriptan in the acceptor cell, and is expressed as Pe (effective permeability in centimeters per second).

## CNS(=O)(=O)Cc1ccc2[nH]cc(CCN(C)C)c2c1 [sumatriptan]
[1]; at pH 10.5
  un-ionized fraction: 90%
[1]; at pH 11.5
  un-ionized fraction: 100%
[2]
  change of effective permeability with pH: increased with pH
